Data as given in ChEMBL document CHEMBL1201862, “PubChem BioAssay data set” (2004).
The source made the active and inactive calls. Cut-off read from the data, not from the text of the source, for most assays here: actives have a measured IC50 and inactives only a lower limit.

Columns and labels:
[1] = target: T1, Sentrin-specific protease 7 (Homo sapiens, UniProt Q9BQF6); type: functional;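 note: Luminescence-based dose-response confirmation of ultra-high-throughput screening hits, measuring inhibition of SENP7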
T1 sequence (Q9BQF6 whole entry): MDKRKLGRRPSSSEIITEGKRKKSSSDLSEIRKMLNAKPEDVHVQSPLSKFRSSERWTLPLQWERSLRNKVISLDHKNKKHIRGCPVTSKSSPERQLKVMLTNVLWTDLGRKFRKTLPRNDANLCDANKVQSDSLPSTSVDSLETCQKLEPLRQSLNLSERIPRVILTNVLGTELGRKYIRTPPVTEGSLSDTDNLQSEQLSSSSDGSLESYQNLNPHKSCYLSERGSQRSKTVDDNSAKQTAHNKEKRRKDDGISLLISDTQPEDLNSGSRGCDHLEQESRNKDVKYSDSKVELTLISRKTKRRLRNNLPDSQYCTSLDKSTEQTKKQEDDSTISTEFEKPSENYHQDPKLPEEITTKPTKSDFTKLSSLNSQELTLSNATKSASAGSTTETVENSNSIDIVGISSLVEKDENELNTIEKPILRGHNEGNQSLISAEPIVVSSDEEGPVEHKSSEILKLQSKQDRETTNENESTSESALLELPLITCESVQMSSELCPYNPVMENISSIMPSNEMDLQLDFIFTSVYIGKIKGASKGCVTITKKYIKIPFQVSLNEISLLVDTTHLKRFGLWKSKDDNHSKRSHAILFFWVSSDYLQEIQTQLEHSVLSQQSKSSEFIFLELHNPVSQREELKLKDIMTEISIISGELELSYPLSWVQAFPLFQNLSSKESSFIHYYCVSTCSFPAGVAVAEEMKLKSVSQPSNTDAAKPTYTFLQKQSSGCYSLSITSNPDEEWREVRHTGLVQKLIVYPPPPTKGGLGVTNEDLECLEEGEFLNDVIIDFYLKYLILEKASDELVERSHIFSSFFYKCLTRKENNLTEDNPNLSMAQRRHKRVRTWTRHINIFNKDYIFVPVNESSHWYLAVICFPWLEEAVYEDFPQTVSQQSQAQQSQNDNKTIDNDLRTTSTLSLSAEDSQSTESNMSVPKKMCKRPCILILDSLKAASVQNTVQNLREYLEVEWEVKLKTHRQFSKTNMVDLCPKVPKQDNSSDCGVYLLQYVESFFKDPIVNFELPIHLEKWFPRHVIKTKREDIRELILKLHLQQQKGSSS

[2] = target: T2, Sentrin-specific protease 6 (Homo sapiens, UniProt Q9GZR1); type: functional;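 note: Luminescence-based dose-response confirmatory assay of SENP6 inhibition, following up an ultra-high-throughput screen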
T2 sequence (Q9GZR1 whole entry): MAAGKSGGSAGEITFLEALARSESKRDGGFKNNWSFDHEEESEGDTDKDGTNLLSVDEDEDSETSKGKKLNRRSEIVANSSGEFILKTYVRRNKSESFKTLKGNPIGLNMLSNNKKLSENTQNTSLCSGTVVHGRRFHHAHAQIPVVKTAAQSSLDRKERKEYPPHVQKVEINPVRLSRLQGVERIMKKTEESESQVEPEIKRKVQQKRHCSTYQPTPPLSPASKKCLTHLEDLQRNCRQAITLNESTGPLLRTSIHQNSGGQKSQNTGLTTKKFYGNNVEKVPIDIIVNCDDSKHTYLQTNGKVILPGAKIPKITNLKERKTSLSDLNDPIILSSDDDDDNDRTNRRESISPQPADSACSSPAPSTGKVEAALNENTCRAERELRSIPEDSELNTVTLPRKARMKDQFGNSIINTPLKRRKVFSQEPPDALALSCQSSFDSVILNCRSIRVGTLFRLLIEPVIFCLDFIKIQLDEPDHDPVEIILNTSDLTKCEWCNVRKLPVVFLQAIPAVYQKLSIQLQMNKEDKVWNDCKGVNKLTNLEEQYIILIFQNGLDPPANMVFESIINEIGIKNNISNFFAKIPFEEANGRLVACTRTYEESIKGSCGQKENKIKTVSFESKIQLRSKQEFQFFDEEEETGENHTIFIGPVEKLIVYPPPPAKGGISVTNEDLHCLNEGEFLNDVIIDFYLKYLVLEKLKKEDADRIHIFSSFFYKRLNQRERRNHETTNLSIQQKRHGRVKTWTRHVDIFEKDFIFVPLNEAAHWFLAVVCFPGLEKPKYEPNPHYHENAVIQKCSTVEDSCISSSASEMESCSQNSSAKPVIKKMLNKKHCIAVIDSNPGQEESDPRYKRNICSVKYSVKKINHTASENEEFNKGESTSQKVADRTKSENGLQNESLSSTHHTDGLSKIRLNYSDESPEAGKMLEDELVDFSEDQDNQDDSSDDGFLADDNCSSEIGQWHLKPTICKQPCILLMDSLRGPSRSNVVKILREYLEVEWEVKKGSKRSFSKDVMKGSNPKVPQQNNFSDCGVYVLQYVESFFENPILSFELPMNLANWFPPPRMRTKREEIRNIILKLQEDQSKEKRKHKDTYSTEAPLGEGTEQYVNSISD

[3] = target: T3, Sentrin-specific protease 8 (Homo sapiens, UniProt Q96LD8); type: functional;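 note: luminescence read-out of SENP8 inhibition, dose-response confirmation following an ultra-high-throughput screen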
T3 sequence (Q96LD8 whole entry): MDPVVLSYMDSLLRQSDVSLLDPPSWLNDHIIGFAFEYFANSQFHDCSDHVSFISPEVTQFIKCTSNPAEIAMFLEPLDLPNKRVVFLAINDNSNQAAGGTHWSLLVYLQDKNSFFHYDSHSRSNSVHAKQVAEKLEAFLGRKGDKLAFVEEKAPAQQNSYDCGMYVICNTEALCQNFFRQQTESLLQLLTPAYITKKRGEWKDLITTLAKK

[4] = target: T4, Tyrosyl-DNA phosphodiesterase 2 (Homo sapiens, UniProt O95551); assay: potency against TDP2 phosphodiesterase activity – biochemical, epi absorbance, IC50, dose response (AID 743297)
T4 sequence (O95551 whole entry): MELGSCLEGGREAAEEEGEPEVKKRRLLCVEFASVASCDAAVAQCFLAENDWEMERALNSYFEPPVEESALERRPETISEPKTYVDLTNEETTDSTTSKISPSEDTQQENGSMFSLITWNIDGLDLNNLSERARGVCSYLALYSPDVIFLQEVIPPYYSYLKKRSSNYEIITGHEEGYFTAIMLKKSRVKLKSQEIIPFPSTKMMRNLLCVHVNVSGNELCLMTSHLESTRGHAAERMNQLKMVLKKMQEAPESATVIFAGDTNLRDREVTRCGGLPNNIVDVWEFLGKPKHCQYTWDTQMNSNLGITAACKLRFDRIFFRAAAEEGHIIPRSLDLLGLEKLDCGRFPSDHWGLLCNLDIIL

O=C(Nc1ccc(C#Cc2ccccc2)cc1)C1CC1
IC50 [1]: 3.38 µM (active) | IC50 [2]: > 100 µM (inactive) | IC50 [3]: > 100 µM (inactive)

CCCCn1c(NC(=O)c2ccco2)c(C(=O)OCC)c2nc3ccccc3nc21
IC50 [1]: 10.1 µM (active) | IC50 [2]: 3.25 µM (active) | IC50 [3]: 4.36 µM (active) | IC50 [4]: > 128 µM (inactive)

Cc1ccccc1NC1=C/C(=N\S(=O)(=O)c2ccc(C(=O)O)cc2)c2ccccc2C1=O
IC50 [4]: 1.41 µM (active)

Cc1ccc(NC2=C/C(=N/S(=O)(=O)c3cccs3)c3ccccc3C2=O)cc1
IC50 [1]: 0.359 µM (active) | IC50 [2]: 0.186 µM (active) | IC50 [3]: 0.244 µM (active) | IC50 [4]: 3.3 µM (active)

COc1ccc(-c2cc(-c3ccc(C)cc3)[nH]n2)c(O)c1
IC50 [1]: 6.63 µM (active) | IC50 [2]: 19.7 µM (active) | IC50 [3]: 34.6 µM (active)
